Experimental findings from PMC6350621, “Small-molecules that covalently react with a human prolyl hydroxylase – towards activity modulation and substrate capture” (Chemical Communications (Cambridge, England), 2018) are described below.

Common to all, as to assay type: binding
One assay concerns the target T1, PHD2_181–426 (Homo sapiens, UniProt Q9GZT9).
T1 construct: PHD2_181–426 (hereafter PHD2); His6 (N, cleaved yes); made in house; host or cells: bacterial culture (2x TY, kanamycin, IPTG)
As to the kind of experiment: Non-denaturing ESI-MS of covalent adduct formation with PHD2. The note with it: equimolar PHD2/Fe(II), 37 °C. The method, then:
The interaction of the ligands with PHD2_181–426 (hereafter PHD2) was examined by non-denaturing ESI-MS, using cone voltage variation to distinguish covalent and non-covalent complexes (non-covalent interactions are typically preserved at cone voltages of 50–80 V, and dissociated at 200 V).[16]–[18] Aldehydes 1 and 2 were incubated with equimolar PHD2 and Fe(II) (37 °C; 5 or 20 min). […] Without Fe(II), neither covalent nor non-covalent adducts were observed, implying covalent conjugation involves active site Fe(II) binding, with subsequent condensation.
Fig. S2 A) Schematic representation of the assigned species formed on addition of 1 or 2 to PHD2. The results support initial non-covalent binding of the inhibitors to PHD2.Fe(II) to form B. Subsequently, condensation of a lysine residue with the aldehyde forms the covalent adduct C. (B) and (C): Non-denaturing ESI-MS data support the covalent crosslinking of 1/2 with PHD2. Conditions: PHD2 (20 µM) was incubated (37 °C, 5 or 20 min) with equimolar FeSO4 and 1 or 2, and the resulting mixtures were analysed by ESI-MS (cone voltage: 50 V or 200 V). Labelled peaks correspond to: A: Unmodified PHD2.Fe. B: Non-covalent adduct PHD2.Fe.2. C: Covalent adduct PHD2.Fe.1/2.
Fig. S6 The α,β-unsaturated amide 3 can covalently modify PHD2. (A) Schematic representation of the adducts formed upon incubation of 3 with PHD2.
PHD2. PHD2 (20 µM) was incubated (37 °C, 5 min, 1 h or 2 h) with equimolar FeSO4 and 3 or 4 before analysis by ESI-MS (cone voltage: 50 V or 200 V). Labelled peaks correspond to the following assigned complexes: A: unmodified PHD2.Fe; B: the non-covalent PHD2.Fe.3 adduct; C: the covalent PHD2.Fe.3 adduct.
2. Experimental procedures
1.1.1 Non-denaturing mass spectrometry1
Apo PHD2 was desalted using a Bio-Spin 6 Column (Bio-Rad, Hemel Hempstead, UK) into 15 mM ammonium acetate (pH 7.5). The stock solution was diluted with the same buffer to a final concentration of 100 μM. FeSO4·7H2O was dissolved in 20 mM HCl at a concentration of 100 mM. This solution was then diluted with MilliQ purified water to give a final working concentration of 100 μM. The protein was mixed with the Fe(II) solution and the inhibitor solution to give final concentrations of 20 μM PHD2, 20 μM Fe(II), and 20 μM inhibitor. The resultant solution was incubated for the appropriate time (specified in the text) at 37 […]
(5 min or 20 min) at 37 °C. After incubation, the samples were immediately analysed by ESI-MS. Data were acquired using a Q-TOF mass spectrometer (Q-TOF micro, Micromass, Altrincham, UK) interfaced with a Nanomate (Advion Biosciences, Ithaca, NY, USA) with a chip voltage of 1.70 kV and a delivery pressure 0.5 psi (1 psi = […]). The sample cone voltage was typically 200 or 50 V with a source temperature of 40 °C and with an acquisition/scan time of 10s/1s. Sample acquisition was performed in positive ion mode in the range of 2000-4000 m/z. The pressure at the interface between the atmospheric source and the high vacuum region was fixed at 6.30 mbar. External instrument calibration was achieved using sodium iodide.

Another assay has as its target T2, KDM4A (Homo sapiens, UniProt O75164).
T2 sequence (O75164 1-1064): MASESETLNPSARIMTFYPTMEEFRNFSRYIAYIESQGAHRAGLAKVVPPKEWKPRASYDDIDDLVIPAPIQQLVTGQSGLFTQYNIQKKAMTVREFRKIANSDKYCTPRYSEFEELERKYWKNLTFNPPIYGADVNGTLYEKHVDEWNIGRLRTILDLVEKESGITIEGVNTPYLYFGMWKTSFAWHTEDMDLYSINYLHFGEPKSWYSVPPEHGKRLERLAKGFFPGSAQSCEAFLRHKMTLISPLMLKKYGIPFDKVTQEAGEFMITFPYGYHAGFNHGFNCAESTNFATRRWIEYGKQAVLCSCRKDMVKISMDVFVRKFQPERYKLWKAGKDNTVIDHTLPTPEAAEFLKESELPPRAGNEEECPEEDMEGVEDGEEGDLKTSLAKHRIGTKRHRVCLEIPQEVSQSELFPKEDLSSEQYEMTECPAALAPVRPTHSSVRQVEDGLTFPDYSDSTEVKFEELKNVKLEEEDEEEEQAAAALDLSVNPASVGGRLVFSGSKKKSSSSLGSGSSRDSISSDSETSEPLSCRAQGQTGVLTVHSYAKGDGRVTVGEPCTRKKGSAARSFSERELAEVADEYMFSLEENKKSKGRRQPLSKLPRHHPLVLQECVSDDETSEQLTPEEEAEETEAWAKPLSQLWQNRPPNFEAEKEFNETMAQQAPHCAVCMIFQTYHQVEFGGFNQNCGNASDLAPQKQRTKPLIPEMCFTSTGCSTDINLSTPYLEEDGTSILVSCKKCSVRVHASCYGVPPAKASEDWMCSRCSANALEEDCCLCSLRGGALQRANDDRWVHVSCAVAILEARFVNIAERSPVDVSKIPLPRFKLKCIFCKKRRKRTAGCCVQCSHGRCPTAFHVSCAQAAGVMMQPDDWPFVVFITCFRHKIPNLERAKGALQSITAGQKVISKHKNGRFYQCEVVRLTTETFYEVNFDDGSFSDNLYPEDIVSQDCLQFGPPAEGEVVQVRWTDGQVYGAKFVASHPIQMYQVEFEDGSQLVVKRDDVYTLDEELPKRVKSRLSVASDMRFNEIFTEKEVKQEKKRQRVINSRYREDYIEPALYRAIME
As to the kind of experiment: Denaturing MS covalent adduct formation with KDM4A. The note with it: enzyme 20 μM, Fe(II) 30 μM, compound 30 μM, 37 °C, 4 h. The source says: Ligands that covalently modify proteins are used for activity-based profiling by functionalisation with an appropriate handle.[20] […] This method for incorporation of a photoreactive group near the active site of a protein to enable substrate capture is complementary to ‘photoreactive site directed mutagenesis’.[21],[22] Azide 7 was designed for use as a tag to allow ‘click’ conjugation with a handle (e.g. biotin) for activity-based profiling, or as a photoreactive aryl azide for substrate capture. […] There is scope for optimisaiton and broader application of the approach described here. […] Work toward the application of 7 and derivatives in protein profiling and substrate capture in cells is ongoing.
HeLa cells were treated with the […]

The target of the next assay is PHD3 (Homo sapiens, UniProt Q9H6Z9). As to the kind of experiment: Denaturing MS covalent adduct formation with PHD3. The note with it: enzyme 20 μM, Fe(II) 30 μM, compound 30 μM, 37 °C, 4 h.
Chain of PHD3 (Q9H6Z9 whole entry): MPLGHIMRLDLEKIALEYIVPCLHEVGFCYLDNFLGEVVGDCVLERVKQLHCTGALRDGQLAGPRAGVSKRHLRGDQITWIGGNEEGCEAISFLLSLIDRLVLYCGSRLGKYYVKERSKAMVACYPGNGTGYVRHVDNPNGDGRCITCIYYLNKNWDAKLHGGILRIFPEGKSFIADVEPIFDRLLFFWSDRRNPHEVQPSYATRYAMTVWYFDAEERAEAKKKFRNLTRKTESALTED

T1 sequence (Q9GZT9 181-426): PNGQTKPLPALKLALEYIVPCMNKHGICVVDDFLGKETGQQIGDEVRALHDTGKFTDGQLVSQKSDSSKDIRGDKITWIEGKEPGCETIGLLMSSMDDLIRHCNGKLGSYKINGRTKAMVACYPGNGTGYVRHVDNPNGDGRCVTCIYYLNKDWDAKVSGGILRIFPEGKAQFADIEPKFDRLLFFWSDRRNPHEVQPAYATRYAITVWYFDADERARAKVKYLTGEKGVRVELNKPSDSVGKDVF

Take `C=CC(=O)Nc1cccc(C(=O)NCC(=O)O)c1O` [compound 3]: on PHD2_181–426 (1 h), the “conversion to the covalent adduct after 1 h” value is given as 1/3. Also, the “conversion to the covalent adduct after 2 h” value on PHD2_181–426 (2 h) is 2/3. Also, on KDM4A, the “covalent reaction with KDM4A” value is on record as “did not accrue evidence”. For the same molecule, the “covalent reaction with PHD3” value at PHD3 is listed as “did not covalently react”.
